Where no end group is shown, it is not given here.

Data set [1] is described as follows: RP-HPLC retention time (read by the paper as polarity). It counts as physicochemical. Conditions: water/acetonitrile gradient with 0.1% formic acid, MS TIC detection. The procedure: An Agilent binary HPLC composing of an Agilent 1100 LC pump, an Agilent 1100 well plate auto-sampler (Agilent Technologies, Santa Clara, CA, USA) and a Jupiter 5 μ (C4, 300 A, 150×2.00 mm, 5 μ) RP HPLC column (Phenomenex, Torrance, CA, USA) were used for separation. The mobile phase flow rate was 200 µl/min and the volume of injection was 20 µL. The separations were performed using a binary solvent gradient; water (Milli-Q; Millipore Corporation, Bedford, MA) which contained 0.1% v/v formic acid was used as the solvent A and acetonitrile (Merck KGaA, Darmstadt, Germany) which contained 0.1% v/v formic acid (Nuplex industries Pty Ltd. (NSW, Australia) was used as the solvent B. The chromatographic separation was achieved using the gradient shown in Table 1.
An API 3000 tandem mass spectrometer equipped with a turbo ion spray was used as the detector. Detection was performed in total ion current (TIC) mode (MS1/Q1), in positive mode, within the range 200–3000 amu. The data were acquired and processed by Analyst 1.5 software (Applied Biosystems, Foster city, CA, USA). Mass spectra were obtained using: declustering potential (DF) of 16 V, focusing potential (FP) of 120 V, Entrance potential (EP) of 10 V, and Ion spray voltage (IS) of 5000 V. Structure identity of fragments was performed using the respective mass/charge (m/z) values of each peptide metabolite. Direct flow injections were carried out using Model 11 plus Harvard Syringe pump (Harvard Apparatus Inc, Holliston, MA, USA).

Data set [2] in a line: Biotransformation in homogenised inflamed tissue at pH 5.5 (LC/MS, mean residence time). Conditions: MES pH 5.5, 37°C; for MRT: 120 min, AUMC/AUC of LC/MS peak intensity.
For data set [3], the target named is T1, mu-opioid receptors (MOR) (Mus musculus, UniProt P42866).
T1 construct: FLAG; expressed in transfected cells
As to the kind of experiment: cell-based. It counts as cell-based, murine.

The target of data set [4] is T2, delta-opioid receptors (DOR).
T2 construct: expressed in transfected cells
It counts as cell-based. The note with it: read-out: IC50 for the inhibition of forskolin induced cAMP in HEK-DOP cells.

T1 sequence (P42866 whole entry): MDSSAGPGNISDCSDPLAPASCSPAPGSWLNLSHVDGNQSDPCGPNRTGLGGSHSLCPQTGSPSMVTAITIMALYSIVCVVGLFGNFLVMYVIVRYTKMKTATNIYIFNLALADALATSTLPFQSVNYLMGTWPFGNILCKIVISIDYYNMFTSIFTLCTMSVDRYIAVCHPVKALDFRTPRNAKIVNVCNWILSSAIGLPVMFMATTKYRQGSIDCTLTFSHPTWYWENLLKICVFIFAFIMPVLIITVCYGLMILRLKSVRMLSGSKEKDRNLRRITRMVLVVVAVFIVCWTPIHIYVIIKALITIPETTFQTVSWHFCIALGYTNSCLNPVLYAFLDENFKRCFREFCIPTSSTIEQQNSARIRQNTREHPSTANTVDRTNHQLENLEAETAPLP

Turning to YGGFMTSEKSQTPLVTL [BE 1–17], the RT worked out at 24.5 min in data set [1] (incubation of BE 1-17, Jupiter C4 column); 24.3 min in data set [1] (incubation of BE 1-17, Jupiter C4 column, listed as BE 1-17); 24.5 min in data set [1] (incubation of BE 1-31, Jupiter C4 300 A column, 200 µl/min). The values for the MRT in data set [2] (incubation of BE 1-17 (115 µM) in rat inflamed tissue homogenate) and in data set [2] (incubation of BE 1-31 (115 µM) in rat inflamed tissue homogenate) were 5.6 and 25, respectively. Also, the “Incubation period after which the peptide was undetectable” value in data set [2] (rat inflamed tissue homogenate, 115 µM peptide, LC/MS) is recorded as 15 min. Also, the “Effect of naloxone pre-treatment on cAMP inhibition through MOR” value in data set [3] is on record as “inhibited by naloxone”. Further, the IC50 (as a rule, the concentration at which inhibition is half-maximal) in data set [4] worked out at 25 nM.

Values taken from article PMC3949714 (PLoS ONE, 2014).
